Results from patent US5089516A, “1-phenyl-3,5-pyrazolidinedione hydroxystyrene compounds which have tyrosine kinase inhibiting activity” (Kanegafuchi Kagaku Kogyo Kabushiki Kaisha, priority 1987, dated 1992).
In brackets after ≈: the same amount, converted by molar mass. Several values for one entry are separate records, joined by “and”; a condition that tells them apart may be missing. Equal values may be shown once.

What was measured:
[1] = tested on: Micrococcus luteus IFO 13867; assay: Antibacterial activity (MIC) against Micrococcus luteus IFO 13867; format: cell-based; details: IFO13867, 37° C., 18 to 20 hours
Description: (§1) The antibacterial activity against Gram-positive bacteria of the compound of the present invention was measured according to a standard method of Nippon Kagaku Ryoho Gakkai [Nippon Kagaku Ryoho Gakkaishi (Journal of the Chemical therapy of Japan), 29, 76(1981)].
(§2) As for gram-positive bacteria, after cultivation in Meuller Hinton broth medium (made by Difco Co., Ltd.), there was prepared a bacterial suspension for inoculation containing about 10^6 of the bacteria per 1 ml of the Meuller Hinton broth medium. On the other hand, the test compound was added to Mueller Hinton agar medium (made by Difco Co., Ltd.) so as to give agar plate medium containing test samples which are twofold serial diluted. Then, the above-mentioned bacterial suspension for inoculation was streaked to each agar medium for about 2 cm with a looped nichrome wire (inner diameter: about 1 mm).
(§3) After that the each agar plate medium was cultured at 37° C. for 18 to 20 hours, the growth of the test bacteria was determined.

[2] = biological target: T1, epidermal growth factor receptor-tyrosine kinase complex (Homo sapiens, UniProt P00533); assay: Tyrosine kinase inhibiting activity (A-431 membrane preparation, EGF-stimulated); format: biochemical; details: 1 μM in the reaction mixture; read-out: Tyrosine kinase inhibition rate
T1 construct: The membrane preparation was employed in the following measurement without solubilization; endogenous in cells; host or cells: A-431 (ATCC CRL1555), membrane preparation, not solubilized
Description: Tyrosine kinase inhibiting activity of the compound of the present invention was measured referring to a method for measuring tyrosine kinase activity by G. Carpenter or by S. Cohen et al. [J. Biol. Chem., 254, 4884(1979); J. Biol. Chem., 257, 1528(1982)].
Cell line A-431 derived from human carcinoma (ATCC CRL1555) was cultured at 37° C. under the condition of 5% CO2 in Dulbecco's modified Eagle's medium (made by NISSUE PHARMACEUTICAL CO., LTD.) containing 10% by volume fetal bovine serum, 50 μg/ml of streptomycin, 50 IU/ml of penicillin G and 50 μg/ml of kanamycin. […] The membrane preparation was employed in the following measurement without solubilization.
A test compound dissolved in dimethylsulfoxide (hereinafter referred to as "DMSO") was added to a mixture of 20 mM of N-2-hydroxyethylpiperazine-N'-2-ethanesulfonic acid buffer (pH 7.4), 1 mM of MnCl2, 7.5 μg of bovine serium albumin and the membrane preparation (10 μg as protein). After incubation at 0° C. for 5 minutes, 100 ng of epidermal growth factor (hereinafter referred to as "EGF") was added thereto and the mixture was further incubated at 0° C. for 15 minutes. [γ-^32 P]ATP (3000 Ci/mmol, 0.1 μCi) was added thereto to make final volume of 70 μl. After incubation at 0° C. for 15 minutes, 50 μl of the reaction mixture was soaked into Whatman 3 MM filter paper (made by Whatman Ltd.) and immediately the reaction was stopped by an aqueous solution of 10% by weight trichloroacetic acid containing 10 mM sodium pyrophosphate. The filter paper was sufficiently washed with the same solution and then washed with ethanol, and dried. Radioactivity present in the filter paper was measured by liquid scintillation counter (A). Also, radioactivity was measured in case of the reaction without EGF (B), the reaction without the test compound (C), and the reaction without both EGF and the test compound (D) as a control.
Tyrosine kinase inhibition rate (%) was calculated by the following equation. [formula]

[3] = tested on: Nycobacterium smegmatis ATCC 607; assay: Antibacterial activity (MIC) against acid-fast bacteria; format: cell-based; details: 37° C., 40 to 42 hours
Description: As for acid-fast bacteria, after cultured in glycerol broth medium, there was prepared a bacterial suspension for inoculation containing about 10^6 of the bacteria per 1 ml of the medium. On the other hand, there were prepared some glycerol Czapek agar plating media with adding the test compounds, and thereto the bacterial suspension for inoculation was streaked.

[4] = tested on: Bacillus subtilis IFO 3134; assay: Antibacterial activity (MIC) against Bacillus subtilis IFO 3134; format: cell-based; details: IFO3134, 37° C., 18 to 20 hours
Description: as §1, §2, §3

[5] = tested on: Staphylococcus aureus IFO 12732; assay: Antibacterial activity (MIC) against Staphylococcus aureus IFO 12732; format: cell-based; details: IFO12732, 37° C., 18 to 20 hours
Description: as §1, §2, §3

[6] = biological target: T2, reverse transcriptase derived from Moloney-Murine Leukemia Virus (M-MLV) (Moloney murine leukemia virus, UniProt P03355); assay: Inhibiting activity against reverse transcriptase derived from M-MLV; format: biochemical; details: read-out: Inhibition rate (reverse transcriptase derived from M-MLV); for inhibition at 1 µM: 1 μM in the reaction mixture
T2 construct: reverse transcriptase derived from Moloney-Murine Leukemia Virus; purchased Pharmacia K. K
Description: There was found the following point by using reverse transcriptase derived from Moloney-Murine Leukemia Virus (hereinafter referred to as "M-MLV").
The compound of the present invention was dissolved in DMSO to give a 100 mM solution thereof. Then, the solution was diluted with distilled water containing DMSO to give a solution of the test compound having a defined concentration. A mixed ratio of DMSO and distilled water was adjusted so that the concentration of DMSO at this time is 10% by volume and a final concentration of DMSO at the beginning of a reaction is 1% by volume.
The thus prepared solution of the test compound was mixed with a solution containing 50 mM of Tris--HCl buffer (pH 8.3), 8 mM of MgCl2, 30 mM of NaCl, 50 mM of dithiothreitol (made by Wako Pure Chemical Industries Ltd.), 0.2 mM of thymidine-5'-triphosphate (made by Pharmacia K. K.) and 6 U/ml of reverse transciptase derived from M-MLV (made by Pharmacia K. K.), and preincubated at 37° C. for 30 minutes. After there was added thereto 10 μg/ml of polyadenylic acid (made by PL Biochemicals Co., Ltd.), 0.01 U/ml of oligodeoxy thymidylic acid (made by Pharmacia K. K.) and 10 μCi/ml of [methyl-^3 H] thymidine-5'-triphosphate (made by Amersham Japan Co., Ltd., 47 Ci/mmol) to give a reaction mixture, the mixture was further incubated at 37° C. for 30 minutes, followed by cooling with ice to stop the reaction.
The radioactivity incorporated into deoxyribonucleic acids was measured according to the method of Linteril et al (Science 170, 447 to 449 (1967)). A defined volume of the reaction mixture was soaked into DE-81 filter paper (made by Whatman Ltd.), the filter paper was washed with 5% by weight of Na2 HPO4 solution for three times, and with distilled water and ethanol successively, and then dried. Radioactivity contained in the filter paper was measured by liquid scintillation counter to give the each radioactivity of the test solution groups.
On the other hand, the same procedure as above was carried out using DMSO-distilled water without the test compound instead of using the test solution, to give the value of radioactivity of a control group.
Reverse transcriptase derived from M-MLV inhibition rate (%) was calculated by the following equation. [formula]

[7] = UV absorption spectrum; format: physicochemical; details: in methanol; for molar extinction coefficient: at the λ max of the same line
Description: Each UV absorption spectrum of the compounds of the present invention was measured according to the conventional method, in which methanol was used as a solvent, and thereby molar extinction coefficient thereof was calculated.

[8] = biological target: T3, 5-lipoxygenase (Cavia porcellus, UniProt A0A286X958); assay: 5-Lipoxygenase inhibiting activity (5-HETE formation, cytosol of peritoneal exudate cells); format: biochemical, Hartley guinea pigs; details: 10 μM in the reaction mixture; read-out: Inhibition rate (5-lipoxygenase)
T3 construct: The cytosol fraction was used as an enzyme solution; from tissue; host or cells: peritoneal exudate cells of casein-injected Hartley guinea pigs, 105,000×g cytosol
T3 sequence (A0A286X958 1-674): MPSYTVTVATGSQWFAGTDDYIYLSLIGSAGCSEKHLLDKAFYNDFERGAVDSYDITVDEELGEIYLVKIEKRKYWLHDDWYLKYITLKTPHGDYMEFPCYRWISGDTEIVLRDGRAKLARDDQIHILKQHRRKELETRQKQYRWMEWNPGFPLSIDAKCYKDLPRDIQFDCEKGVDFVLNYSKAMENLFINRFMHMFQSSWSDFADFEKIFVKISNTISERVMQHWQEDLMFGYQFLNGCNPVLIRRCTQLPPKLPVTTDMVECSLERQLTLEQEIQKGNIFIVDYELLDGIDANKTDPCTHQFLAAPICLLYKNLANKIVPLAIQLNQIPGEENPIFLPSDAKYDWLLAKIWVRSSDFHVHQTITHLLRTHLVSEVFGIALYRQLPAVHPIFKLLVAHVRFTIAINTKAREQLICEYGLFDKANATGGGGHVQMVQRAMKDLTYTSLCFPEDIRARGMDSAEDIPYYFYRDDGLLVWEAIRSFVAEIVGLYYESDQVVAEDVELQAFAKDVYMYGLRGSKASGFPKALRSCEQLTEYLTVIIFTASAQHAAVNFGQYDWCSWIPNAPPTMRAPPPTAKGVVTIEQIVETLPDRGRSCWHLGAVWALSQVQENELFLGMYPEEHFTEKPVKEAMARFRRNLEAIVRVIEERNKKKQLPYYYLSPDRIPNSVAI
Description: 5-Lipoxygenase inhibiting activity of the compound of the present invention was measured referring to the method for measuring 5-lipoxygenase activity by K. Ochi et al. [Journal of Biological Chemistry (J. Biol. Chem.), 258, 5754(1983)].
Sterilized 2% solution of casein (pH 7) was injected intraperitoneally into Hartley guinea pigs in a volume of 5 ml/100 g body weight. Fifteen hours later, the guinea pigs were killed and peritoneal exudate cells thereof were collected. After the exudate cells were washed with 17 mM Tris--HCl buffer (pH 7.4) containing 0.74% ammonium to remove contaminating erythrocytes in the exudate cells suspension, the cells were washed with buffer A (130 mM NaCl, 1 mM EDTA, 25 mM sodium phosphate, pH 7.4). The washed cells were suspended in buffer B (50 mM sodium phosphate, 1 mM EDTA, 0.1% gelatin, pH 7.4) at 10^8 cells/ml, sonicated and centrifuged at 10,000×g for 20 minutes under the cold atmosphere. The obtained supernatant was further centrifuged at 105,000×g for 60 minutes under the cold atmosphere. The cytosol fraction was used as an enzyme solution.
The enzyme solution was preincubated with the […] in the presence of 1 mM CaCl2, 1 mM reduced gluthathione (GSH) and 2 mM ATP at 30° C. for 5 minutes in 0.2 ml of a reaction mixture and the mixture was further incubated at 30° C. for 5 minutes by adding 20 μM [1-^14 C] arachidonic acid (0.1 μCi) thereto. The test compounds were dissolved in ethanol to give the reaction mixture containing 2% ethanol as a final concentration. Only ethanol was added to the reaction mixture as a control group.
To the reaction mixture were added 2.5 ml of a mixture of chloroform and methanol (2/1 by volume) and 0.3 ml of 40 mM citric acid to stop the reaction. The mixture was vortexed and an organic solvent layer was evaporated to dryness under nitrogen gas. After dissolving the dried organic layer in a fixed amount of the mixture of chloroform and methanol (2/1 by volume), it was spotted on a silica gel plate (Kiesel gel 60F254, E. Merck) and products were separated using a developer (the organic solvent layer of ethyl acetate/water/2,2,4-trimethylpentane/acetic acid=11/10/5/2 by volume). After the radioactive position of the product was determined by means of a radioautography, an area equivalent to that of 5-hydroxyeicosatetraenoic acid (hereinafter referred to as "5-HETE") was scraped off, and then its radioactivity was measured with a liquid scintillation counter. With regarding the amount of the generated 5-HETE as the 5-lipoxygenase inhibiting activity, the inhibition rate (%) in comparison with the control group was calculated according to the following equation. [formula]

T1 sequence (P00533 25-1210, one chain of several): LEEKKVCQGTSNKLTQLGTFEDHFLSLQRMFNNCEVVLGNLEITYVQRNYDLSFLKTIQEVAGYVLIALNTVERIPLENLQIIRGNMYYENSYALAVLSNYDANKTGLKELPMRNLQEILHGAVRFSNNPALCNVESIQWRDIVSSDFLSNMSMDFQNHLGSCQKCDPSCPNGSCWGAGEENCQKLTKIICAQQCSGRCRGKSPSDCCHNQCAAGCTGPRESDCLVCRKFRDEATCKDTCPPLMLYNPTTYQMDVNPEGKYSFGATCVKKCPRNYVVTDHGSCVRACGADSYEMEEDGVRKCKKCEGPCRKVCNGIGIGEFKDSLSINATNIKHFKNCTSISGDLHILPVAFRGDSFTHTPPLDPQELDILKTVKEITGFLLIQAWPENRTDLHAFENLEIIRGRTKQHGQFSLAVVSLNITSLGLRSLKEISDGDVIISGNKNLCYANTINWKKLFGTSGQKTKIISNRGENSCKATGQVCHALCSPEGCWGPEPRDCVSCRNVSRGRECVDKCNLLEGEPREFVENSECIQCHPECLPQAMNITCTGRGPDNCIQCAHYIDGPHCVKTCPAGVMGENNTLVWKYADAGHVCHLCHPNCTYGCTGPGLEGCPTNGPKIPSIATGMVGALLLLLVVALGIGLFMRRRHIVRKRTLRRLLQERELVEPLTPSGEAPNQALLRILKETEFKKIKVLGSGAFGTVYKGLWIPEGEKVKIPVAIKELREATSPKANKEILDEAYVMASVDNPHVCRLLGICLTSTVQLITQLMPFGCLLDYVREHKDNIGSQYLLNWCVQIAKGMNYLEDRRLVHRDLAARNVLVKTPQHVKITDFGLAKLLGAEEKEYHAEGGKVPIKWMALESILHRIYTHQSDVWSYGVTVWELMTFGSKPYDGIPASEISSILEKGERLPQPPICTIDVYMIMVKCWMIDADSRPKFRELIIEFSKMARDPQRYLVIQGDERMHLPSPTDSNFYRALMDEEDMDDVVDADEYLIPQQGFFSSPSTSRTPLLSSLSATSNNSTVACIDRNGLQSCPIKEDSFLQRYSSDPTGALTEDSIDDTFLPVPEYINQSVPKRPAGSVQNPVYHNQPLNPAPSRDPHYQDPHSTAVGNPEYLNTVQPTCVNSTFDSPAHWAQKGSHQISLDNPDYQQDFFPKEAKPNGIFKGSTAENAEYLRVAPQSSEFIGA

| Structure (SMILES) | λ max [7] | molar extinction coefficient [7] | inhibition at 10 µM [8] [%] | MIC [1] [µg/mL] | inhibition at 1 µM [2] [%] | MIC [3] [µg/mL] | MIC [4] [µg/mL] | MIC [5] [µg/mL] | inhibition at 1 µM [6] [%] | inhibition at 10 µM ([6]; 10 μM in the reaction mixture) [%] |
| --- | --- | --- | --- | --- | --- | --- | --- | --- | --- | --- |
| O=C1NN(c2ccccc2)C(=O)C1=Cc1cc(-c2ccccc2)c(O)c(-c2ccccc2)c1 [Compound 19] |  |  |  | 50 (≈ 116 µM) | 74 | ≤ 6 | 100 (≈ 231 µM) | 100 (≈ 231 µM) | 75 |  |
| N#CC(=Cc1cc(-c2ccccc2)c(O)c(-c2ccccc2)c1)C(N)=O [Compound 15] | 271 nm and 348 nm | 2.04 × 10^4 and 2.11 × 10^4 |  | 60 (≈ 176 µM) | 100 | ≤ 15 | 100 (≈ 294 µM) | 60 (≈ 176 µM) |  | 59 |
| O=C1NC(=S)SC1=Cc1cc(-c2ccccc2)c(O)c(-c2ccccc2)c1 [Compound 1] |  |  |  | ≤ 6 | 23 | 6 (≈ 15.4 µM) | ≤ 6 | 12 (≈ 30.8 µM) | 96 |  |

Continued, in another order:

| λ max [7] | molar extinction coefficient [7] | inhibition at 10 µM [8] [%] | Structure (SMILES) | MIC [1] [µg/mL] | inhibition at 1 µM [2] [%] | MIC [3] [µg/mL] | MIC [4] [µg/mL] | MIC [5] [µg/mL] | inhibition at 1 µM [6] [%] | inhibition at 10 µM ([6]; 10 μM in the reaction mixture) [%] |
| --- | --- | --- | --- | --- | --- | --- | --- | --- | --- | --- |
| 257 nm and 361 nm | 1.87 × 10^4 and 1.80 × 10^4 | 85 | O=C1Nc2ccccc2C1=Cc1cc(Cc2ccccc2)c(O)c(Cc2ccccc2)c1 [Compound 4] | ≤ 6 | 74 |  |  |  |  |  |
| 304 nm | 1.87 × 10^4 |  | O=C1NCCC1=Cc1cc(Cc2ccccc2)c(O)c(Cc2ccccc2)c1 [Compound 18] |  | 87 |  |  |  |  |  |
| 249 nm and 347 nm | 1.51 × 10^4 and 2.40 × 10^4 | 28 | N#CC(=Cc1cc(Cc2ccccc2)c(O)c(Cc2ccccc2)c1)C(N)=O [Compound 16] | ≤ 15 | 100 | ≤ 15 | ≤ 15 | ≤ 15 |  |  |
